Measured values reported in patent publication US4454122A, “Adenosine derivatives of anti-inflammatory and analgesic activity, and therapeutic compositions which contain them as their active principle” (Bioresearch S.r.l., priority 1982, dated 1984).

How the values were obtained:
[1] = test system: experimental edema in the rat by carragen; test: experimental edema in the rat by carragen (Winter method), percentage protection; assay type: in vivo; settings: im; 23 mg/kg intramuscularly, rat; read-out: Percent protection calculated on edema development
Description: ^ (a) signifies that the product was administered intramuscularly.

gastro-intestinal system = test: secondary effects on the gastro-intestinal system at ED50 doses (gastric lesions); assay type: in vivo, rat; settings: rat, in vivo
Description: In the same test, the ED50 of indomethacine is 9 mg/kg.

[2] = lethal dose in the rat and therapeutical index; settings: in vivo
[3] = test system: pleuritis induced in the rat by carragen; test: pleuritis induced in the rat by carragen (Velo method); assay type: in vivo; settings: 75 mg/kg, oral, rat
[4] = granuloma test in the rat by cotton pellets; assay type: in vivo; settings: in vivo, 9 mg/kg, oral, read-out: TI (granuloma test)
From the text: (§1) In the granuloma test in the rat by cotton pellets (Winter […]. et al (1963) J. Pharm. Exper.

[5] = test system: granuloma in the rat by cotton pellets; test: granuloma test in the rat by cotton pellets; assay type: in vivo; settings: 9 mg/kg, oral
From the text: as §1

mouse = test: hot plate test on the mouse according to Roberts (analgesic activity); assay type: in vivo; settings: 37 mg/kg, oral
Description: C--The analgesic activity of the products was tested by two tests considered very significant.
In the hot plate test on the mouse according to Roberts (Roberts E. Simonsen D.G. (1966) Biochem. Pharmac. 15, 1875-) the MTA gives a protection of 50% with an oral dose of 37 mg/kg. An approximately equivalent protection of 58% is obtained with 100 mg/kg of amidopyrine administered orally.

[6] = test system: stretching by phenylquinone; test: stretching test by phenylquinone (analgesic activity); assay type: in vivo; settings: 37 mg/kg, oral
[7] = test system: fever induced in the rat by beer yeast; test: fever induced in the rat by beer yeast (antipyretic activity); assay type: in vivo
Description: This was measured for the new products by means of fever induced in the rat by beer yeast (Winder C. V. et al (1961) J. Pharmacol. Exp. Ther. 133, 117).

[8] = test system: platelet aggregation induced by ADP; test: in vitro platelet aggregation induced by ADP (Born & Cross method); assay type: cell-based
Description: (§2) (1) "in vitro" tests on platelet aggregation induced by ADP and collagen, in the presence of the new products;
(§3) Blood was withdrawn without stasis, and an anticoagulant (3.8% sodium citrate) was added to give a blood:citrate ratio of 9:1. Plasma rich in platelets and plasma poor in platelets were obtained by centrifuging at ambient temperature.
(§4) The platelet aggregation was estimated using the Born & Cross method (G. V. R. Born and M. J. Cross, J. Physiol., Lond. 168, 178, 1963) on the plasma fraction rich in platelets.
(§5) The aggregating agents were used in the following concentrations:
(§6) ADP (Sigma) 1 μM; collagen (Horn) 5 μml; arachidonic acid 4×10^-4 M.
Adenosine at a concentration of 1×10^-5 M was used as the antiaggregation activity reference substance.
The results obtained with ADP are shown on the graphs of FIG. 1, in which the abscissa indicates the time in minutes and the ordinate the percentage aggregation.
Curve 1 relates to the controls, curve 2 to the samples treated with 1×10^-5 M adenosine, and curve 3 to the samples treated with 5×10^-4 M MTA.

[9] = test system: platelet aggregation induced by collagen; test: in vitro platelet aggregation induced by collagen (Born & Cross method); assay type: cell-based
Description: as §2, §3, §4, §5, §6

[10] = test system: platelet aggregation induced by arachidonic acid; test: in vitro platelet aggregation induced by arachidonic acid (AA); assay type: cell-based
Description: (2) "in vitro" tests on platelet aggregation induced by arachidonic acid (AA);
as §3, §4, §5, §6
The capacity of MTA to increase the inhibiting effect of prostacyclin (PGI2) in aggregation induced by AA was also investigated. In FIG. 3, curve 1 relates to the controls, curve 2 to MTA at a concentration of 5×10^-4 M, curve 3 to PGI2 at a concentration of 5×10^-9 M, and curve 4 to a mixture consisting of 5×10^-4 M MTA and 5×10^-9 M PGI2.

[11] = test system: platelet aggregation induced by ADP; test: platelet aggregation induced by ADP in persons treated with the product ("in vivo" tests); set-up: species or system healthy volunteer subjects; settings: 100 mg every 8 hours for 3 days; ADP 1 μM; FIG. 4
Description: (§7) (3) "in vitro" tests on platelet aggregation induced by ADP and collagen in persons treated with the new products.
(§8) Three apparently healthy volunteer subjects respectively, and who had not taken any drug for at least 15 days, were submitted to aggregation tests before and after consuming the new products at a dose of 100 mg every 8 hours for 3 days, these tests then being evaluated. The blood sample for the determination of the platelet aggregation was taken 2 hours […] consuming the last dose of product under test.
More precisely, the full-line curves relate to the values obtained with blood samples from untreated patients, whereas the dashed-line curves relate to the values obtained for the same patients treated with MTA.

[12] = test system: platelet aggregation induced by collagen; test: platelet aggregation induced by collagen in persons treated with the product ("in vivo" tests); set-up: species or system healthy volunteer subjects; settings: 100 mg every 8 hours for 3 days; collagen 5 μg/ml
Description: as §7, §8

[13] = test system: sleep induced by pentobarbital in the mouse; test: Morris test, duration of the sleep induced by pentobarbital in the mouse; assay type: in vivo; settings: 20 mg/kg, intramuscular
Description: The Morris test was used (Morris R. W. (1966) Arch. int. Pharmacodyn 161, No. 2, 380)
In this test, the MTA increased by 87% the duration of the sleep induced by pentobarbital in the mouse, at an intramuscular dose of 20 mg/kg.

[14] = acute toxicity, DL50 in the mouse; settings: in vivo, po, orally
From the text: The compounds of the present invention are practically free from acute toxicity when administered orally. They are practically free from toxicity at therapeutic doses for any method of administration. The following values are obtained for MTA and MTA sulphoxide: […]

[15] = test system: experimental edema in the rat by carragen; test: experimental edema in the rat by carragen (Winter method), percentage protection; assay type: in vivo; settings: po, rat
[16] = summary of in vitro and in vivo tests

CSC[C@H]1O[C@@H](n2cnc3c(N)ncnc32)[C@H](O)[C@@H]1O [MTA, 5'-deoxy-5'-methyl-thioadenosine]
inhibition in vivo at 23 mg/kg [1]: 50%
secondary effect on the gastro-intestinal system / gastric lesions (gastro-intestinal system): no secondary effect on the gastro-intestinal system
selectivity ratio ([2]; edema test in the rat, read-out: therapeutical index (TI)): > 54
LD50 ([2]; rat, route printed "/oa"): 200 mg/kg
protection calculated on the total number of cells present in the exudate [3]: 48.8%
protection calculated on the volume of the exudate [3]: 42.4%
selectivity ratio [4]: 222
protection in the granuloma test [5]: 30%
protection in the hot plate test (mouse): 50%
protection in the stretching test by phenylquinone [6]: 51%
temperature reduction ([7]; 80 mg/kg, intramuscular): 2.35%
temperature reduction with respect to the controls ([7]; 300 mg/kg, oral, one hour after administration): 4.59%
temperature after lowering (from 38.8° C.) ([7]; 300 mg/kg, oral, one hour after administration, lowering from 38.8° C.): 37.4 °C
effect on primary platelet aggregation due to ADP (in words) ([8]; 5×10^-4 M, ADP 1 μM, in vitro, FIG. 1): strongly reduces primary platelet aggregation due to ADP
effect on 2nd aggregation wave (in words) ([8]; 5×10^-4 M, ADP 1 μM, in vitro, as a consequence of reduced primary aggregation): inhibits the 2nd aggregation wave
effect on the 1st aggregation wave (in words) [8, 16]: inhibits the 1st aggregation wave
inhibition of platelet aggregation induced by ADP, overall (in words) [8, 16]: strongly inhibits platelet aggregation induced by ADP
inhibiting power towards platelet aggregation induced by collagen (in words) ([9]; in vitro, collagen printed 5 μml): no inhibiting power towards platelet aggregation induced by collagen which was worthy of note
direct effect on the 2nd aggregation wave (in words) [9, 16]: negligible direct effect on the 2nd aggregation wave
effect on aggregation induced by collagen, overall (in words) [9, 16]: practically no effect on aggregation induced by collagen
platelet aggregation inhibiting effect, AA induced (in words) ([10]; 2.5×10^-4, 5×10^-4 and 10^-3 M, AA 4×10^-4 M, FIG. 2): proportional to its concentration
antiaggregation action alone, AA induced (in words) ([10]; MTA 5×10^-4 M or PGI2 5×10^-9 M, each alone, FIG. 3): ineffective
platelet aggregation induced by ADP "in vivo" (in words) [11]: strongly inhibits platelet aggregation induced by ADP
inhibition of platelet aggregation induced by collagen (in words) [12]: not effective in inhibiting platelet aggregation induced by collagen
latency time of platelet aggregation induced by collagen (in words) [12]: lengthens the latency time
increase of the duration of the sleep induced by pentobarbital [13]: 87%
LD50 [14]: > 2000 mg/kg
inhibition in vivo at 37 mg/kg ([15]; 37 mg/kg orally, read-out: Percent protection calculated on edema development): 50%
ED50 ([15]; administered orally, read-out: ED50 (edema test)): 37 mg/kg
